Data: paper PMC11729419, “Thiol-Reactive or Redox-Active: Revising a Repurposing Screen Led to a New Invalidation Pipeline and Identified a True Noncovalent Inhibitor Against Papain-like Protease from SARS-CoV-2” (ACS Pharmacology & Translational Science, 2024)
Structures can show the parent of a compound that is named as a salt. Where two headings read alike, the source gives them in different places. * marks the point of attachment. AMC = Cc1cc(=O)oc2cc(N*)ccc12; Cbz = O=C(OCc1ccccc1)*

Columns and labels:
SARS-CoV-2 PLpro-NAB [1] = target: T1, SARS-CoV-2 PLpro-NAB (Severe acute respiratory syndrome coronavirus 2, UniProt P0DTD1); test: biochemical; conditions: for Inhibitory activity on retest in 1 mM L-cysteine: 50% inhibition at 20 μM
SARS-CoV-2 PLpro-NAB [2] = target: T1, SARS-CoV-2 PLpro-NAB; format: biochemical
[3] = Table S1, 20 µM, DTT buffer, average (SD)
[4] = Table S1, 20 µM, L-cysteine buffer, average (SD)
[5] = Table S1, DTT buffer, read-out: HP PLpro-NAB SARS-CoV-2 IC50 [µM] triplicates DTT BUFFER
[6] = Table S1, L-cysteine buffer, read-out: HP PLpro-NAB SARS-CoV-2 IC50 [µM] duplicates L-CYS BUFFER
[7] = Table S1, 20 µM, L-cysteine buffer, average (SD), read-out: HP PLpro-NAB SARS-CoV-2 inhibition [%] 20 µM triplicates L-CYS BUFFER
[8] = Table S1, 20 µM, DTT buffer, average (SD), read-out: HC PLpro-NAB SARS-CoV-2 inhibition [%] 20 µM triplicates DTT BUFFER
[9] = hit confirmation, 20 μM, 1 mM DTT buffer, average (SD), 20 μM PR619 = 100%, DMSO = 0%
[10] = hit profiling, 20 μM, 1 mM L-cys buffer, average (SD), 20 μM PR619 = 100%
[11] = read-out: HP PLpro-NAB IC50 [μM] duplicates 1 mM L-cys buffer, hit profiling, 1 mM L-cys buffer
[12] = read-out: HP PLpro-NAB IC50 [μM] triplicates 1 mM DTT buffer, hit profiling, 1 mM DTT buffer

Molecule | HC PLpro-NAB SARS-CoV-2 inhibition [%] 20 µM triplicates DTT BUFFER (SARS-CoV-2 PLpro-NAB [1]; [3]) | HP PLpro-NAB SARS-CoV-2 inhibition [%] 20 µM triplicates L-CYS BUFFER (SARS-CoV-2 PLpro-NAB [1]; [4]) | IC50 (SARS-CoV-2 PLpro-NAB [1]; [5]) [µM] | IC50 (SARS-CoV-2 PLpro-NAB [1]; [6]) [µM] | also measured
NC(Cc1cc(O)c(O)cc1O)C(=O)O (racemic) [6-Hydroxy-DL-DOPA] | 81.47 (1.21) % | 4.81 (4.61) % | > 20 | > 20 | 
Cc1nc2c(=O)n(C)c(=O)nc-2n(C)n1 [3-Methyl Toxoflavin] | 181.38 (6.76) % | -26.71 (3.86) % | 0.074 | > 20 | 
O=C1C(=O)c2ccccc2-c2ccccc21 [9,10-Phenanthrenequinone] |  |  |  | > 20 | inhibition at 20 µM (SARS-CoV-2 PLpro-NAB [1]; [7]): -40.8%
C[n+]1c2cc(N)ccc2cc2ccc(N)cc21.[Cl-] [Acriflavinium Hydrochloride] | 27.57 (6.10) % | -99.55 (4.20) % | 12.4 | > 20 | 
CC1(C)CCC2=C(O1)C(=O)c1ccccc1C2=O [Alpha Lapachone] | 146.26 (3.11) % | -6.97 (8.44) % | 4.43 | > 20 | 
CC1(C)C(=O)N=C2C1=C(O)C(=O)c1ccccc12 [BVT-948] | 154.88 (0.27) % | -16.22 (16.3) % | 0.39 | > 20 | 
Cn1cccc1/C=C1\C(=O)NC(=O)c2ccccc21 [BYK-204165] | 137.58 (2.88) % | 7.10 (11.9) % | 6.17 | > 20 | 
CC1(C)CCC2=C(O1)c1ccccc1C(=O)C2=O [Beta-Lapachone] |  |  | 4.71 | > 20 | inhibition at 20 µM (SARS-CoV-2 PLpro-NAB [1]; [8]): 175%; inhibition at 20 µM (SARS-CoV-2 PLpro-NAB [1]; [7]): -37.4%
C[C@H]1COC2=C1C(=O)C(=O)c1c2ccc2c1CCCC2(C)C [Cryptotanshinone] |  |  |  |  | inhibition at 20 µM (SARS-CoV-2 PLpro-NAB [1]; [8]): 40.7%; inhibition at 20 µM (SARS-CoV-2 PLpro-NAB [1]; [7]): -71.4%
CC(C)Nc1cccnc1N1CCN(C(=O)c2cc3cc(NS(C)(=O)=O)ccc3[nH]2)CC1 [Delavirdine (mesylate), Delavirdine] |  |  |  |  | IC50 (SARS-CoV-2 PLpro-NAB [1]; HP PLpro-NAB SARS-CoV-2 IC50 [µM] duplicates L-CYS BUFFER): > 20 µM; IC50 (SARS-CoV-2 PLpro-NAB [1]; HP PLpro-NAB SARS-CoV-2 IC50 [µM] triplicates DTT BUFFER): > 20 µM
Cc1cccc2c3c(ccc12)C1=C(C(=O)C3=O)[C@@H](C)CO1 [Dihydrotanshinone I] |  |  | 0.92 | > 20 | inhibition at 20 µM (SARS-CoV-2 PLpro-NAB [1]; [8]): 80.7%; inhibition at 20 µM (SARS-CoV-2 PLpro-NAB [1]; [7]): -176%
COc1cc([C@@H]2c3cc4c(cc3[C@@H](O[C@@H]3O[C@@H]5CO[C@@H](C)O[C@H]5[C@H](O)[C@H]3O)[C@H]3COC(=O)[C@H]23)OCO4)cc(OC)c1O [Etoposide] |  |  | > 20 | > 20 | 
Cc1cc(-c2ccc(/N=N/c3ccc4c(S(=O)(=O)O)cc(S(=O)(=O)O)c(N)c4c3O)c(C)c2)ccc1/N=N/c1ccc2c(S(=O)(=O)O)cc(S(=O)(=O)O)c(N)c2c1O [Evans Blue] |  |  | 8.68 | > 20 | inhibition at 20 µM (SARS-CoV-2 PLpro-NAB [1]; [8]): 126%; inhibition at 20 µM (SARS-CoV-2 PLpro-NAB [1]; [7]): -67.8%
Oc1c(Cl)cc(Cl)c(Cl)c1Cc1c(O)c(Cl)cc(Cl)c1Cl [Hexachlorophene] |  |  |  |  | IC50 (SARS-CoV-2 PLpro-NAB [1]; HP PLpro-NAB SARS-CoV-2 IC50 [µM] duplicates L-CYS BUFFER, Table S1, L-cysteine buffer): > 20 µM; IC50 (SARS-CoV-2 PLpro-NAB [1]; HP PLpro-NAB SARS-CoV-2 IC50 [µM] triplicates DTT BUFFER, Table S1, DTT buffer): > 20 µM; inhibition at 20 µM (SARS-CoV-2 PLpro-NAB [1]; read-out: HC PLpro-NAB SARS-CoV-2 inhibition [%] 20 µM triplicates DTT BUFFER): 109%; inhibition at 20 µM (SARS-CoV-2 PLpro-NAB [1]; read-out: HP PLpro-NAB SARS-CoV-2 inhibition [%] 20 µM triplicates L-CYS BUFFER): -18.3%
CC[n+]1c(-c2ccccc2)c2cc(N)ccc2c2ccc(N)cc21 [Homidium Bromide] |  |  | 13.7 | > 20 | inhibition at 20 µM (SARS-CoV-2 PLpro-NAB [1]; [8]): 149%; inhibition at 20 µM (SARS-CoV-2 PLpro-NAB [1]; [7]): 18.3%
O=C1C=CC(=O)c2c(O)cccc21 [Juglone] |  |  | > 20 | > 20 | inhibition at 20 µM (SARS-CoV-2 PLpro-NAB [1]; [8]): 83.7%; inhibition at 20 µM (SARS-CoV-2 PLpro-NAB [1]; [7]): -14.8%
CCOC(=O)C1=C(C)N=c2sc(=Cc3ccc(OCC(=O)O)cc3)c(=O)n2C1c1ccc(SC)cc1 (stereo not drawn) [ML120] | 82.78 (2.58) % | -56.07 (10.54) % | 3.14 | > 20 | 

Molecule | HC PLpro-NAB SARS-CoV-2 inhibition [%] 20 µM triplicates DTT BUFFER (SARS-CoV-2 PLpro-NAB [1]; [3]) | HP PLpro-NAB SARS-CoV-2 inhibition [%] 20 µM triplicates L-CYS BUFFER (SARS-CoV-2 PLpro-NAB [1]; [4]) | IC50 (SARS-CoV-2 PLpro-NAB [1]; [5]) [µM] | IC50 (SARS-CoV-2 PLpro-NAB [1]; [6]) [µM] | also measured
COc1cccc2c(NCc3ccccc3)nc(-n3c(N)nc4ccccc43)nc12 [ML240] | 93.76 (13.43) % | -11.93 (4.14) % | > 20 | > 20 | 
Nc1ccc(O)c2ncccc12 [PD119507] | 186.40 (4.35) % | -16.42 (5.8) % | 0.065 | > 20 | 
N#CSc1cc(SC#N)c(N)nc1N [PR-619] |  |  |  |  | Inhibition in L-cysteine buffer versus DTT buffer (dose-response) (SARS-CoV-2 PLpro-NAB [1]; 1 mM L-cysteine vs 1 mM DTT): did not show variations in inhibition potency or thermal stability; Inhibitory activity on retest in 1 mM L-cysteine (SARS-CoV-2 PLpro-NAB [1]): retained their inhibitory activity; HC PLpro-NAB inhibition [%] 20 μM triplicates 1 mM DTT buffer (SARS-CoV-2 PLpro-NAB [1]; [9]): 101.31 (1.54) %; HP PLpro-NAB inhibition [%] 20 μM triplicates 1 mM L-cys buffer (SARS-CoV-2 PLpro-NAB [1]; [10]): 106.60 (1.05) %; IC50 (SARS-CoV-2 PLpro-NAB [1]; [11]): 3.7 µM; IC50 (SARS-CoV-2 PLpro-NAB [1]; [12]): 1.39 µM
Cc1cc(-c2ccc(/C=C3/SC(=Nc4ccc(Cl)c(C(=O)O)c4)NC3=O)o2)c([N+](=O)[O-])cc1C [PT 1] | 87.07 (2.59) % | -36.09 (5.10) % | 9.32 | > 20 | 
CC[N+](C)(CC)CCC[n+]1c(-c2ccccc2)c2cc(N)ccc2c2ccc(N)cc21.[I-].[I-] [Propidium-Iodide] | 135.55 (3.03) % | 14.90 (7.41) % | 0.24 | > 20 | 
O=c1ccc2[n+]([O-])c3ccc(O)cc3oc-2c1 [Resazurin (sodium salt), Resazurin] |  |  | > 20 | > 20 | 
O=C(Nc1ccccc1-c1cn2c(CN3CCNCC3)csc2n1)c1cnc2ccccc2n1 [SRT 1720] |  |  |  |  | Inhibitory activity on retest in 1 mM L-cysteine (SARS-CoV-2 PLpro-NAB [1]): retained their inhibitory activity; HC PLpro-NAB inhibition [%] 20 μM triplicates 1 mM DTT buffer (SARS-CoV-2 PLpro-NAB [1]; [9]): 109.60 (16.57) %; HP PLpro-NAB inhibition [%] 20 μM triplicates 1 mM L-cys buffer (SARS-CoV-2 PLpro-NAB [1]; [10]): 169.11 (0.11) %; IC50 (SARS-CoV-2 PLpro-NAB [1]; [11]): 0.82 µM; IC50 (SARS-CoV-2 PLpro-NAB [1]; [12]): > 20 µM
CN(C)CCNc1nc2cc(O)ccc2c2c1C(=O)c1ccccc1-2.Cl.Cl [TAS-103 (dihydrochloride)] | 154.91 (1.47) % | 17.75 (9.12) % | 5.94 | > 20 | 
COCCn1c2c([n+](Cc3cnccn3)c1C)C(=O)c1ccccc1C2=O [YM-155] |  |  | 17.9 | > 20 | inhibition at 20 µM (SARS-CoV-2 PLpro-NAB [1]; [8]): 139%; inhibition at 20 µM (SARS-CoV-2 PLpro-NAB [1]; [7]): -5.61%
O=c1c(O)cccc2cc(O)c(O)c(O)c12 [purpurogallin] |  |  |  |  | IC50 (SARS-CoV-2 PLpro-NAB [1]; HP PLpro-NAB IC50 [μM] duplicates 1 mM L-cys buffer, hit profiling, 1 mM L-cys buffer): 1.03 µM; IC50 (SARS-CoV-2 PLpro-NAB [1]; HP PLpro-NAB IC50 [μM] triplicates 1 mM DTT buffer, hit profiling, 1 mM DTT buffer): > 20 µM
O=C(O)c1cc(O)c2c(c1)[C@H]([C@H]1c3cc(C(=O)O)cc(O)c3C(=O)c3c(O[C@@H]4O[C@H](CO)[C@@H](O)[C@H](O)[C@H]4O)cccc31)c1cccc(O[C@@H]3O[C@H](CO)[C@@H](O)[C@H](O)[C@H]3O)c1C2=O [sennoside A] |  |  |  |  | inhibition at 20 µM (SARS-CoV-2 PLpro-NAB [1]; hit confirmation, 20 μM, 1 mM DTT buffer, average (SD), 20 μM PR619 = 100%, DMSO = 0%, read-out: HC PLpro-NAB inhibition [%] 20 μM triplicates 1 mM DTT buffer): 160%; inhibition at 20 µM (SARS-CoV-2 PLpro-NAB [1]; hit profiling, 20 μM, 1 mM L-cys buffer, average (SD), 20 μM PR619 = 100%, read-out: HP PLpro-NAB inhibition [%] 20 μM triplicates 1 mM L-cys buffer): 149%
Bacitracin [Bacitracin (Zinc)] | 67.28 (8.42) % | 6.99 (8.69) % | 10.2 | > 20 | 
Cbz-LRGG-{AMC} |  |  |  |  | Km (SARS-CoV-2 PLpro-NAB [2]): 45.2 µM; Vmax (SARS-CoV-2 PLpro-NAB [2]): 173 041 /min
Chicago-Sky-Blue-6b | 51.02 (1.78) % | 3.64 (5.37) % | > 20 | > 20 | 
Ro-08-2750 | 119.29 (1.83) % | -33.99 (8.82) % | 0.4 | > 20 | 
Ryuvidine | 159.90 (1.27) % | -33.69 (4.70) % | 0.26 | > 20 | 
SF1670 | 183.62 (4.27) % | -32.73 (4.18) % | 0.25 | > 20 | 
